Measurements taken from ChEMBL document CHEMBL1126234, “Rigid analogs of acetylcholine can be m1-selective agonists: implications for a rational treatment strategy in Alzheimer's disease” (Bioorg Med Chem Lett, 1992).
Numbering of substitutions follows the chain as printed.

Key:
Assay type in all cases: functional, cell-based
[1] = biological target: T1, Muscarinic acetylcholine receptor M5 (Homo sapiens) (UniProt P08912); experiment: Percent increase in phosphoinositides (PI) hydrolysis using CHO cells, stably transfected with human muscarinic m5 acetylcholine receptor (AChR)
T1 sequence (whole entry): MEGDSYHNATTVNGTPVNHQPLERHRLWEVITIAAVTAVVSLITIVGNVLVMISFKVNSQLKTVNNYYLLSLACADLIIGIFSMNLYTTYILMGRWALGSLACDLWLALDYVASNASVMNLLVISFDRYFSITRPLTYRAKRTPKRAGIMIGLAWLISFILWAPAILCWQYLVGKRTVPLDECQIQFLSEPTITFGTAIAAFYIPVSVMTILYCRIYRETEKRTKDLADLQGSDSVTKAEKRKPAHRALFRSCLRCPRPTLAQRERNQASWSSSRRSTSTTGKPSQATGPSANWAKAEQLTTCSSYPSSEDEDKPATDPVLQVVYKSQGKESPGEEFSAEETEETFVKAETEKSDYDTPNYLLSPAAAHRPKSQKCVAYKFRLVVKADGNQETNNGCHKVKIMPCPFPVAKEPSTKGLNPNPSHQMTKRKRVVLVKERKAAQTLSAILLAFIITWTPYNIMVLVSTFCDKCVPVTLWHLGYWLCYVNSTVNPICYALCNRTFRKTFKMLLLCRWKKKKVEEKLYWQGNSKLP

[2] = biological target: T2, Muscarinic acetylcholine receptor M2 (Homo sapiens) (UniProt P08172); experiment: Percent increase in forskolin-stimulated cAMP accumulation using CHO cells, transfected with human muscarinic m2 acetylcholine receptor (AChR)
T2 sequence (whole entry): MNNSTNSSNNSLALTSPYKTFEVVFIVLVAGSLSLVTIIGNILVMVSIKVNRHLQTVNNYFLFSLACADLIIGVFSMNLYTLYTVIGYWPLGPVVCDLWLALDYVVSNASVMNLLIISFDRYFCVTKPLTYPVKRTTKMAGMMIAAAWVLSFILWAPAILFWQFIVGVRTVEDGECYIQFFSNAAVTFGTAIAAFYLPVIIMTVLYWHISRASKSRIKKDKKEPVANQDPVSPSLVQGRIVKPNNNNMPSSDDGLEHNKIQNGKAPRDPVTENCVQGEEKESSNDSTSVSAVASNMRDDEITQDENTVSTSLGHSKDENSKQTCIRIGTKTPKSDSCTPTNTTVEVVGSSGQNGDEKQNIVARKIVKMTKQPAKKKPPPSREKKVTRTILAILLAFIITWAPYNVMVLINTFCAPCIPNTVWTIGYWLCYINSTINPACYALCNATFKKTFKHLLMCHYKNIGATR

[3] = biological target: T2, Muscarinic acetylcholine receptor M2 (Homo sapiens); experiment: Percent increase in intracellular calcium ions concentration ([Ca2+]i) using CHO cells, stably transfected with human muscarinic m2 acetylcholine receptor (AChR)
[4] = biological target: T3, Muscarinic acetylcholine receptor M1 (Homo sapiens) (UniProt P11229); experiment: Percent increase in Arachidonic acid (AA) release using CHO cells, transfected with human muscarinic m1 acetylcholine receptor (AChR)
T3 sequence (whole entry): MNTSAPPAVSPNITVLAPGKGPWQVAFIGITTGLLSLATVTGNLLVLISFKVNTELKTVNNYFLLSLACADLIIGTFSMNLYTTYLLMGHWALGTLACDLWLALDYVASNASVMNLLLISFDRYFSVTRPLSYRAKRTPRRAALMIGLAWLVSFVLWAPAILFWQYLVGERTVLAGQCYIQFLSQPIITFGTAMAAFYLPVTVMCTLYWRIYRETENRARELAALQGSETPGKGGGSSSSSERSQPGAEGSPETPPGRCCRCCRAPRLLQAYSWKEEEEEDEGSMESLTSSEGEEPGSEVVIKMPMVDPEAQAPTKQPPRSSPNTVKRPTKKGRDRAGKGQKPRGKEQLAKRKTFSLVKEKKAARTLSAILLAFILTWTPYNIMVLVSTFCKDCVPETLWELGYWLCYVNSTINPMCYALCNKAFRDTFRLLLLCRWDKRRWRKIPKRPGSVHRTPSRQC

[5] = biological target: Muscarinic acetylcholine receptor M3 (Homo sapiens) (UniProt P20309); experiment: Percent increase in Arachidonic acid (AA) release using CHO cells, stably transfected with human muscarinic m3 acetylcholine receptor (AChR)
[6] = biological target: T4, Muscarinic acetylcholine receptor M4 (Homo sapiens) (UniProt P08173); experiment: Percent increase in intracellular calcium ion concentration ([Ca2+]i) using CHO cells, stably transfected with human muscarinic m4 acetylcholine receptor (AChR)
T4 sequence (whole entry): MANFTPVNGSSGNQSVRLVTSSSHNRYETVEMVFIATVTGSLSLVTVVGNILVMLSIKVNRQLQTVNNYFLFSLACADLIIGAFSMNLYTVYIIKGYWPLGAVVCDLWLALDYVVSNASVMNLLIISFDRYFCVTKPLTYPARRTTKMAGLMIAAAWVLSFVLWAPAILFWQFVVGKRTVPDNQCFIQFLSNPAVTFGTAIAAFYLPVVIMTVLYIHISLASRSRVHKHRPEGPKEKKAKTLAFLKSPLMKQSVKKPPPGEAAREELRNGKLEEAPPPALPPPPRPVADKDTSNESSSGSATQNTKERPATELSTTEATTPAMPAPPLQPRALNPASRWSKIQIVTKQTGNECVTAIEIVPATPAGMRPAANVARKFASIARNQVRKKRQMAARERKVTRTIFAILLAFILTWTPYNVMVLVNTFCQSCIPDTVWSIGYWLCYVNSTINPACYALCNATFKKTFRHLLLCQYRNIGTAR

[7] = biological target: T3, Muscarinic acetylcholine receptor M1 (Homo sapiens); experiment: Percent increase in forskolin-stimulated cAMP accumulation using CHO cells, stably transfected with human muscarinic m1 acetylcholine receptor (AChR)
[8] = biological target: T3, Muscarinic acetylcholine receptor M1 (Homo sapiens); experiment: Percent increase in phosphoinositides (PI) hydrolysis using chinese hamster ovary (CHO) cells, stably transfected with human muscarinic m1 acetylcholine receptor (AChR)
[9] = biological target: T1, Muscarinic acetylcholine receptor M5 (Homo sapiens); experiment: Percent increase in Arachidonic acid (AA) release using CHO cells, stably transfected with human muscarinic m5 acetylcholine receptor (AChR)
[10] = biological target: T3, Muscarinic acetylcholine receptor M1 (Homo sapiens); experiment: Percent increase in intracellular calcium ions concentration ([Ca2+]i) using CHO cells, stably transfected with human muscarinic m1 acetylcholine receptor (AChR)
[11] = biological target: Muscarinic acetylcholine receptor M3 (Homo sapiens) (UniProt P20309); experiment: Percent increase in phosphoinositides (PI) hydrolysis using CHO cells, stably transfected with human muscarinic m3 acetylcholine receptor (AChR)
[12] = biological target: Muscarinic acetylcholine receptor M3 (Homo sapiens) (UniProt P20309); experiment: Percent increase in intracellular calcium ion concentration ([Ca2+]i) using CHO cells, stably transfected with human muscarinic m3 acetylcholine receptor (AChR)
[13] = biological target: Muscarinic acetylcholine receptor M3 (Homo sapiens) (UniProt P20309); experiment: Percent increase in forskolin-stimulated cAMP accumulation using CHO cells, stably transfected with human muscarinic m3 acetylcholine receptor (AChR)
[14] = biological target: T1, Muscarinic acetylcholine receptor M5 (Homo sapiens); experiment: Percent increase in intracellular calcium ions concentration ([Ca2+]i) using CHO cells, stably transfected with human muscarinic m5 acetylcholine receptor (AChR)
[15] = biological target: Muscarinic acetylcholine receptor M3 (Rattus norvegicus) (UniProt P08483); experiment: Percent increase in Arachidonic acid (AA) release using CHO cells, stably transfected with rat muscarinic m3 acetylcholine receptor (AChR)
[16] = biological target: T5, Muscarinic acetylcholine receptor M1 (Rattus norvegicus) (UniProt P08482); experiment: Percent increase in Arachidonic acid (AA) release using CHO cells, transfected with rat muscarinic m1 acetylcholine receptor (AChR)
T5 sequence (whole entry): T3 sequence (whole entry) with A5V, T254S, P309S, R320K, A337G, I413V

Muscarinic acetylcholine receptor M3 (Homo sapiens), sequence (P20309 whole entry, looked up): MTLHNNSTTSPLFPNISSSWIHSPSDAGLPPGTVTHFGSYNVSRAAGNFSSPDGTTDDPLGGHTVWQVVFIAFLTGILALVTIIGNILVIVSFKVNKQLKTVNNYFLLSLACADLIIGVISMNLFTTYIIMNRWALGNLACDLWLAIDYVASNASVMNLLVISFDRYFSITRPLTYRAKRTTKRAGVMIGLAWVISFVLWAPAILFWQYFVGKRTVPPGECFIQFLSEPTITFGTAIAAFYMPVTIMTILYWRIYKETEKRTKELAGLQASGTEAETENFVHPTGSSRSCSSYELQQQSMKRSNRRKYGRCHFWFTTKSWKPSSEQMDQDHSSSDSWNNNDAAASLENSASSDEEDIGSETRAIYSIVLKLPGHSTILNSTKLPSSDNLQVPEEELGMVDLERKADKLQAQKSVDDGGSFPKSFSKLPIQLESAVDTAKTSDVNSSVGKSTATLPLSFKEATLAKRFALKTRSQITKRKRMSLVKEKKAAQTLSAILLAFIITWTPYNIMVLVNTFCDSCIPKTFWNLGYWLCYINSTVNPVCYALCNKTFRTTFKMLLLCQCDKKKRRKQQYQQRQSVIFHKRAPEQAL
Muscarinic acetylcholine receptor M3 (Rattus norvegicus), sequence (P08483 whole entry, looked up): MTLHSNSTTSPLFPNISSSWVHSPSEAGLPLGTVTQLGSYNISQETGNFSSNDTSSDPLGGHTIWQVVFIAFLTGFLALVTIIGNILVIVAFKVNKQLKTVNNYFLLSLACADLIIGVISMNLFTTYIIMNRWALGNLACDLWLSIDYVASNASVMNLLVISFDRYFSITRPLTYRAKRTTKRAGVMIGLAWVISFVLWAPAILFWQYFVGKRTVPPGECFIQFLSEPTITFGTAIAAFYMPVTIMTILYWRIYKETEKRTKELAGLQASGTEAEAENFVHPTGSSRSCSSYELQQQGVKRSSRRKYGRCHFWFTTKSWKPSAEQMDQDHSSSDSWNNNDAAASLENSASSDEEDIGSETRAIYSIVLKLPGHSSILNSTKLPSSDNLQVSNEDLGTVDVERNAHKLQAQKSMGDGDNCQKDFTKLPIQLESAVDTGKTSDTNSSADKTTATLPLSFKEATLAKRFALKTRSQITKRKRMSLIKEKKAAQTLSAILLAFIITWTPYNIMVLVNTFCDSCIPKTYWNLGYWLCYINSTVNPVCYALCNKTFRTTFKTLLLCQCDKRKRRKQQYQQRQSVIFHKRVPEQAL

Structure (SMILES) | Increase [1] [%] | Increase [2] [%] | Increase [3] [%] | Increase [4] [%] | Increase [5] [%] | Increase [6] [%] | Increase [7] [%] | Increase [8] [%] | Increase [9] [%] | Increase [10] [%] | Increase [11] [%] | Increase [12] [%] | Increase [13] [%] | Increase [14] [%] | Increase [15] [%] | Increase [16] [%]
C[C@@H]1OC2(CS1)CN1CCC2CC1 (some centres undefined) | 4 | 60 | 17 | 68 | 11 | 3 | 1 | 43 | 4 | 79 | 10 | 86 | 0.8 | 32 |  | 
CC1=NCC2(CCN(C)CC2)O1 | 28 | 74 | 12 |  |  | 10 | 6 | 85 |  | 60 | 76 | 130 | 10 | 78 | 27 | 90
CC1=NC2(CCN(C)CC2)CO1 | 79 | 70 | 9 | 3 |  | 10 |  | 102 |  | 85 | 84 | 132 | 4 | 80 | 36 | 61
C[N+](C)(C)CC#CCOC(=O)Nc1cccc(Cl)c1 | 24 | 9.5 |  | 90 | 13 |  | 7 | 89 | 34 |  | 7 |  | 7 |  |  | 
